Measured values from patent US20100087475A1, “PHARMACEUTICAL COMPOUNDS” (Biovali Laboratories International (Barbados) S.R.L., priority 2008, published 2010).

Experiments:
Sigma σ2 Receptor = biological target: T1, Sigma σ2 Receptor (Rattus norvegicus, UniProt Q5U3Y7); test: Radioligand binding, [3H] Ifenprodil, brain; set-up: species or system Wistar rat; conditions: compound at 10 μM
T1 construct: Source: Wistar rat brain; from tissue; host or cells: Wistar rat brain
T1 sequence (Q5U3Y7 1-176): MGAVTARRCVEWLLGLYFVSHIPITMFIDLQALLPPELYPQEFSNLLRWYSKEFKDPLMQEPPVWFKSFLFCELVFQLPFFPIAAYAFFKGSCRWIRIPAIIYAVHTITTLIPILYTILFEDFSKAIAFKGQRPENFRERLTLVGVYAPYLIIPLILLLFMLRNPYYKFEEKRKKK
Protocol: (§1) Compounds of the invention were subjected to specific binding assays to test their ability to bind to the receptors and transporter proteins described below.
• Reference: Hashimoto et al., Eur. J. Pharmacol., 236:159-163, (1993) • Source: Wistar rat brain • Ligand: 3 nM [3H] Ifenprodil • Vehicle: 1% DMSO • Incubation time/Temp: 60 minutes @ 37° C. • Incubation buffer: 50 mM Tris-HCl, pH 7.4 • Non Specific ligand: 10 μM Ifenprodil • Kd: 4.8 nM • Bmax: 1.3 pmole/mg protein • Specific binding: 85% • Quantitation method: Radioligand binding • Significance criteria: ≧50% of maximum stimulation or inhibition

Dopamine D4.4 Receptor = biological target: T2, Dopamine D4.4 Receptor (Homo sapiens, UniProt P21917); test: Radioligand binding, [3H] Spiperone; conditions: compound at 10 μM
T2 construct: expressed in transfected cells; host or cells: CHO-K1 cells
T2 sequence (P21917 1-419): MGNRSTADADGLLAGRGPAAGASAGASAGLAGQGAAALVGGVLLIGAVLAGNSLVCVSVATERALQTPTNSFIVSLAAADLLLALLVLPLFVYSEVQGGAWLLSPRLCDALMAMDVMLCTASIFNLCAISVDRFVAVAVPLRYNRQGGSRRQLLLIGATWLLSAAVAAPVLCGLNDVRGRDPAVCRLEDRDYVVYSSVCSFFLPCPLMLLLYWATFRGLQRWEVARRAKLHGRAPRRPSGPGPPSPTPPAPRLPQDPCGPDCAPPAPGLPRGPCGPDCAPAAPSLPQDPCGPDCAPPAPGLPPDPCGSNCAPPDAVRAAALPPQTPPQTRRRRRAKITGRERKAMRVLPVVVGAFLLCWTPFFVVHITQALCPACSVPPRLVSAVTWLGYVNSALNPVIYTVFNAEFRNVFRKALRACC
Protocol: as §1
(§2) (i) Dopamine D4.4 Receptor:
(§3) • Reference: Van Tol et al., Nature, 350:610-614 (1991) • Source: Human recombinant CHO-K1 cells • Ligand: 1.2 nM [^3H]

dopamine receptors = test: Receptor binding studies, overall statement on dopamine receptors; set-up: species or system Human; conditions: conclusion from % inhibition at 10 μM
Protocol: (d) Dopamine D1 Receptor:
• Reference: Dearry et al., Nature, 347:72-76, (1990) • Source: Human recombinant CHO cells • Ligand: 1.4 nM [3H] SCH-23390 • Vehicle: 1% DMSO • Incubation time/Temp: 2 hours @ 37° C. • Incubation buffer: 50 mM Tris-HCl, pH 7.4, 150 mM NaCl, 1.4 mM ascorbic acid, 0.001% BSA • Non Specific ligand: 10 μM (+)-butaclamol • Kd: 1.4 nM • Bmax: 0.63 pmole/mg protein • Specific binding: 90% • Quantitation method: Radioligand binding • Significance criteria: ≧50% of maximum stimulation or inhibition
(e) Dopamine D2L Receptor:
• Reference: Grandy et al., Proc. Natl. Acad. Sci. USA, 86:9762-9766 (1989) • Source: Human recombinant CHO cells • Ligand: 0.16 nM [^3H]
(f) Dopamine D2S Receptor:
(g) Dopamine D3 Receptor:
• Reference: Sokoloff et al., Nature, 347:146-151, (1990) • Source: Human recombinant CHO cells • Ligand: 0.7 nM [3H]
(h) Dopamine D4.2 Receptor:
• Reference: Van Tol et al., Nature, 350:610-614 (1991) • Source: Human recombinant CHO-K1 cells • Ligand: 0.5 nM [^3H]
as §2, §3
(j) Dopamine D4.7 Receptor:
• Reference: Van Tol et al., Nature, 350:610-614 (1991) • Source: Human recombinant CHO-K1 cells • Ligand: 1.5 nM [^3H]

inhibition at 10 µM (Sigma σ2 Receptor; read-out: % inhibition, (n) σ2 Receptor) [%]	% inhibition, (i) D4.4 Receptor (Dopamine D4.4 Receptor) [%]	inhibition of dopamine receptors (result in words) (dopamine receptors)	% inhibition, (n) σ2 Receptor (Sigma σ2 Receptor; 10 µM) [%]	SMILES
31	33	–	–	COc1cc2c(cc1O)[C@@H]1C[C@@H](O)[C@H](CC(C)C)CN1CC2 (single isomer, unassigned) [(+)-10-desmethyl-γ-dihydrotetrabenazine]
–	81	potent inhibitor of dopamine receptors	32	COc1cc2c(cc1O)[C@@H]1C[C@@H](O)[C@H](CC(C)C)CN1CC2 (single isomer, unassigned) [(−)-10-desmethyl-γ-dihydrotetrabenazine]
